Measurements taken from EP4119948A1, “METHOD FOR STRATIFICATION AND TREATMENT OF MULTIPLE SCLEROSIS” (Universität Zürich, priority 2021, dated 2023).

Experiments:
[1] = tested on: CSF-infiltrating CD4+ T cells; assay: Proliferative response (3H-thymidine, stimulation index) of PHA-expanded CSF-infiltrating CD4+ T cells to peptides presented by autologous PBMCs; format: cell-based, human; settings: peptide 10 µM, 72 h, 105 MS patients
Method: (§1) PBMCs were freshly isolated using Ficoll (Eurobio, Germany) density gradient centrifugation. CSF-infiltrating CD4^+ T cells were expanded with PHA in a single round of stimulation using a previously reported protocol aimed to reduce TCR repertoire bias (Planas et al., […], Sci Transl Med, 10(462):eaat4301). 6 × 10^4 PHA-expanded CSF-infiltrating CD4^+ T cells were seeded in quadruplicate with 2 × 10^5 irradiated autologous PBMCs as antigen presenting cells and stimulated with peptides (Table 2) at a final concentration of 10 µM and with a T Cell Activation Kit (anti-CD3, anti-CD28, anti-CD2 beads) (Miltenyi Biotec) as positive control. Table 2. GDP-L-FS, myelin and CEF Peptides (amino acid sequences)
Proliferation was measured 72 h after stimulation using 3H-thymidine (Hartmann Analytic, Braunschweig, Germany) as previously reported (Planas et al., 2018). The stimulation index of single wells (SI) was calculated as follows: SI = (cpm well with peptide) / (Mean cpm wells without peptide). A well was considered positive if SI ≥2.

[2] = tested on: CSF-infiltrating CD4+ T cells; assay: IFN-γ release (ELISA) of PHA-expanded CSF-infiltrating CD4+ T cells stimulated with peptides presented by autologous PBMCs; format: cell-based, human; settings: peptide 10 µM, 105 MS patients
Method: as §1
Release of IFN-γ was measured using the ELISA MAX™ Deluxe Set Human IFN-γ (Biolegend, San Diego, CA, USA) according to the manufacturer's instructions. A well was considered positive if IFN-γ ≥20 pg/ml and a patient was considered positive for a peptide if the mean IFN-γ of the four wells was ≥ 20 pg/ml and at least 3 of the 4 wells were positive.

MBP 83-99 (ENPVVHFFKNIVTPRT; listed as Homo sapiens) [MBP (83-99), myelin peptide …]
Positive wells % Proliferation ([1]; well positive if SI ≥2, quadruplicates (420 wells per peptide)): 1.92% | Positive patients % Proliferation ([1]; patient positive if mean SI of four wells ≥2 and at least 3 of four wells SI ≥2): 0.96% | Positive wells % IFNγ release ([2]; well positive if IFN-γ ≥20 pg/ml, quadruplicates (420 wells per peptide)): 6.28% | Positive patients % IFNγ release ([2]; patient positive if mean IFN-γ of four wells ≥20 pg/ml and at least 3 of 4 wells positive): 5.71%
